This note sets out measurements from patent US8614182B2 (Jiangsu Hansoh Pharmaceuticals Co., Ltd., priority 2009, dated 2013).

Each structure is given as a SMILES string.

The target in this assay is T1, Glucagon-like peptide-1 receptor (GLP1R) (Homo sapiens, UniProt P43220).
T1 construct: expressed in transfected cells; host or cells: HEK293
Description: Agonist activity on GLP1R, cAMP response element luciferase reporter gene in HEK293 cells. The note with it: HEK293 cells stably transfected with GLP1R and pCRE-Luc, 5 hours incubation; read-out: Maximum reaction rate. Format: cell-based. The source says: GLP1R is a receptor coupled with Gs protein, of which the binding with the agonists will result in an increase of intracellular cAMP concentration. In the present experiment, GLP1R and the luciferase reporter gene plasmid regulated by cAMP response elements are co-transfected into HEK293 cells. When the compound binds to the receptor and activates the receptors, the expression of the luciferase will increase. The activation status of the compound to GLP1R can be learned by testing the activity of the luciferase.
2. The compounds or positive drugs having a certain concentration gradient were added (3 wells per concentration) and incubated at 37° C. for 5 hours. The negative control was solvent DMSO.
3. 50 μl culture medium was taken from each well, and 50 μl of the luciferase substrate were added and vortexed for 10 minutes.
4. 80 μl reaction solution was taken and transferred to a white 96 well plate, then detected on the Invision microplate reader (enzyme-labelling measuring instrument).
(In a reporter assay the amount or activity of a reporter protein is the signal.)

T1 sequence (P43220 24-463, species assumed): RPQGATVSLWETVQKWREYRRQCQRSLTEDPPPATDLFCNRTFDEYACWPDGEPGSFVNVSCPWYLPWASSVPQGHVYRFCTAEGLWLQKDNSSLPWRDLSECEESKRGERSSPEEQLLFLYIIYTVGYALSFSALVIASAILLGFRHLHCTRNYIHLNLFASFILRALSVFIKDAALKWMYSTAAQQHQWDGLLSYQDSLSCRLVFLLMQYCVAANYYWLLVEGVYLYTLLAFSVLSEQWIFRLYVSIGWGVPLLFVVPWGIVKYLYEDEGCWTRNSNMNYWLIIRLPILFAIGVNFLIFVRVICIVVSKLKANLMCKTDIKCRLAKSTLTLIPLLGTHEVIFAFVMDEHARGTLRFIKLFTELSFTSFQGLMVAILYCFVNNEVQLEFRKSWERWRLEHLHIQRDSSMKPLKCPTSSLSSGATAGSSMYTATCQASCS

With `CCCCCCCCCCCCCCCC(=O)N[C@@H](CCCCNC(=O)[C@H](CO)NC(=O)[C@@H]1CCCN1C(=O)[C@@H]1CCCN1C(=O)[C@@H]1CCCN1C(=O)CNC(=O)CNC(=O)[C@H](CCCCN)NC(=O)[C@H](CCCCN)NC(=O)CNC(=O)[C@H](CCCNC(=N)N)NC(=O)CNC(=O)[C@H](CCCCN)NC(=O)[C@@H](NC(=O)[C@H](CC(C)C)NC(=O)[C@H](Cc1c[nH]c2ccccc12)NC(=O)[C@@H](NC(=O)[C@@H](NC(=O)[C@H](Cc1ccccc1)NC(=O)[C@H](CCC(=O)O)NC(=O)[C@H](C)NC(=O)[C@H](C)NC(=O)[C@H](CCC(N)=O)NC(=O)CNC(=O)[C@H](CCC(=O)O)NC(=O)[C@H](CC(C)C)NC(=O)[C@H](Cc1ccc(O)cc1)NC(=O)[C@H](CO)NC(=O)[C@H](CO)NC(=O)[C@@H](NC(=O)[C@H](CC(=O)O)NC(=O)[C@H](CO)NC(=O)[C@@H](NC(=O)[C@H](Cc1ccccc1)NC(=O)[C@@H](NC(=O)CNC(=O)[C@H](CCC(=O)O)NC(=O)[C@H](C)NC(=O)[C@@H](N)Cc1c[nH]cn1)[C@@H](C)O)[C@@H](C)O)C(C)C)[C@@H](C)CC)C(C)C)C(C)C)C(=O)O` [HS-20005], the Emax stood at 89.1%.
The figure for `CCCCCCCCCCCCCCCC(=O)N[C@@H](CCCCNC(=O)[C@H](CO)NC(=O)[C@@H]1CCCN1C(=O)[C@@H]1CCCN1C(=O)[C@@H]1CCCN1C(=O)CNC(=O)CNC(=O)[C@H](CCCCN)NC(=O)[C@H](CCCCN)NC(=O)CNC(=O)[C@H](CCCNC(=N)N)NC(=O)CNC(=O)[C@H](CCCCN)NC(=O)[C@@H](NC(=O)[C@H](CC(C)C)NC(=O)[C@H](Cc1c[nH]c2ccccc12)NC(=O)[C@@H](NC(=O)[C@@H](NC(=O)[C@H](Cc1ccccc1)NC(=O)[C@H](CCC(=O)O)NC(=O)[C@H](C)NC(=O)[C@H](C)NC(=O)[C@H](CCC(N)=O)NC(=O)[C@H](CCC(=O)O)NC(=O)[C@H](CCC(=O)O)NC(=O)[C@H](CC(C)C)NC(=O)[C@H](Cc1ccc(O)cc1)NC(=O)[C@H](CO)NC(=O)[C@H](CO)NC(=O)[C@@H](NC(=O)[C@H](CC(=O)O)NC(=O)[C@H](CO)NC(=O)[C@@H](NC(=O)[C@H](Cc1ccccc1)NC(=O)[C@@H](NC(=O)CNC(=O)[C@H](CCC(=O)O)NC(=O)[C@H](C)NC(=O)[C@@H](N)Cc1c[nH]cn1)[C@@H](C)O)[C@@H](C)O)C(C)C)[C@@H](C)CC)C(C)C)C(C)C)C(=O)O` [HS-20007] is 87%.
